This is an account of results in patent US5552308A, “CDNA clone of a rat serotonin transporter and protein encoded thereby” (priority 1991, dated 1996).

The Ki is the equilibrium dissociation constant of an inhibitor or competing ligand from its target. By Km is commonly meant the concentration of substrate that gives half-maximal velocity.

In one data set the test system is serotonergic neurons. The following applies: cited from earlier work.
Data set [1] concerns the target T1, 5-HT transporter (Rattus norvegicus, UniProt P31652). Description: Inhibition of 3H-5-HT uptake in CV-1 cells transfected with the 5-HT transporter cDNA. It counts as cell-based. The following applies: for inhibition of 5-HT uptake (in words): CV-1 cells transfected with 5HTT cDNA.
For data set [2], the system named is 5-HT transporter. The following applies: cited from earlier work.
Data set [3] addresses T1, 5-HT transporter. Description: 3H-5-HT uptake (saturation kinetics, ion dependence) in CV-1 cells transfected with the 5HTT cDNA. It counts as cell-based. The following applies: read-out: Km of 3H-5-HT uptake; transfected CV-1 cells; 3H-5-HT 0.1 nM to 10 uM; 15 min; mean +/- SEM.

T1 sequence (P31652 whole entry): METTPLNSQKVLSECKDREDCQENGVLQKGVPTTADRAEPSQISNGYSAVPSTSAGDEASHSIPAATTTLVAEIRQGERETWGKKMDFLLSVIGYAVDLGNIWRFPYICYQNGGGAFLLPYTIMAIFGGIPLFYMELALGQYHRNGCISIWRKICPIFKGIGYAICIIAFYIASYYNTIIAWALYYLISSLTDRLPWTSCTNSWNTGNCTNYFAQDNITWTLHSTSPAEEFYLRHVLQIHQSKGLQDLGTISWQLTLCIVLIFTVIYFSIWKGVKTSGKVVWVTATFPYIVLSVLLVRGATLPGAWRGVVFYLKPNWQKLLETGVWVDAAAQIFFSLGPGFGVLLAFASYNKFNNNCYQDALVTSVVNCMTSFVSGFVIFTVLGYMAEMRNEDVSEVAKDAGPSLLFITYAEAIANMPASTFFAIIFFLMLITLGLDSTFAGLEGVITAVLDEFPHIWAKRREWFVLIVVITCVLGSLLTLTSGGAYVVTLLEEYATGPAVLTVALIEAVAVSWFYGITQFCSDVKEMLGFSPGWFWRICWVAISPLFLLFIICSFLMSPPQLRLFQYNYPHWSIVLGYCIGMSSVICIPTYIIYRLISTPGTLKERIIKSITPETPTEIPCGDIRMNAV

On to `CNC(C)Cc1ccc2c(c1)OCO2` (racemic) [± MDMA, 3,4-Methylenedioxy-methamphetamine], for which, in the data set with serotonergic neurons, the “neurotoxicity to serotonergic neurons (in words)” value is recorded as “potent neurotoxin of serotonergic neurons which causes irreversible cell degeneration”. For the same compound, on 5-HT transporter [1], the affinity corresponds to a Ki of 186 ± 27 nM and the “inhibition of 5-HT uptake (in words)” value is “potent inhibition of ^3 H-5-HT uptake”.

In the case of `CC(N)Cc1ccccc1` (stereo not drawn) [Amphetamine], in the data set on 5-HT transporter [2], the “transport by the 5-HT transporter and release of 5-HT (in words)” value was “substrates for transport by the 5-HT transporter and stimulate release of 5-HT”. For `NCCc1c[nH]c2ccc(O)cc12` [^3 H-5-HT, serotonin], the Michaelis constant (Km) at 5-HT transporter [3] turned out to be 0.529 ± 0.107 µM. `COC(=O)[C@H]1[C@@H](OC(=O)c2ccccc2)C[C@@H]2CC[C@H]1N2C` [cocaine]: at 5-HT transporter [1], the “inhibition of 5-HT uptake (in words)” value was “relatively potent inhibitor of 5-HT uptake”. With `NCCc1ccc(O)c(O)c1` [dopamine], at 5-HT transporter [1], the Ki was > 10000 nM and the “inhibition of 5-HT uptake (in words)” value is “ineffective at blocking 5-HT uptake”. For `OC1(c2ccc(Cl)cc2)c2ccccc2C2=NCCN21` (stereo not drawn) [mazindol], in that order: 548 ± 120 nM and “lower affinity for the 5-HT transporter”. For `NC[C@H](O)c1ccc(O)c(O)c1` [noradrenaline], in that order: > 10000 nM and “ineffective at blocking 5-HT uptake”.
